Values quoted from earlier work, collected in patent US20230243817A1, “USES, METHODS AND PRODUCTS RELATING TO OLIGOMERIC LIPOPOLYSACCHARIDE BINDING PROTEINS” (priority 2020, published 2023).

Details: for Kd: read-out: KD for LPS

Molecule | Kd | Reported binding affinity (depending on the bacterial strain)
MD-2: human LPS immune receptor | 2.33 µM | –
TLR4: human LPS immune receptor | 141 µM | –
polymyxin B [reference compound] | 48 µM | micromolar range
LPS binding protein: human LPS immune receptor (protein, UniProt P18428 26-481, looked up) Lipopolysaccharide-binding …: ANPGLVARITDKGLQYAAQEGLLALQSELLRITLPDFTGDLRIPHVGRGRYEFHSLNIHSCELLHSALRPVPGQGLSLSISDSSIRVQGRWKVRKSFFKLQGSFDVSVKGISISVNLLLGSESSGRPTVTASSCSSDIADVEVDMSGDLGWLLNLFHNQIESKFQKVLESRICEMIQKSVSSDLQPYLQTLPVTTEIDSFADIDYSLVEAPRATAQMLEVMFKGEIFHRNHRSPVTLLAAVMSLPEEHNKMVYFAISDYVFNTASLVYHEEGYLNFSITDDMIPPDSNIRLTTKSFRPFVPRLARLYPNMNLELQGSVPSAPLLNFSPGNLSVDPYMEIDAFVLLPSSSKEPVFRLSVATNVSATLTFNTSKITGFLKPGKVKVELKESKVGLFNAELLEALLNYYILNTFYPKFNDKLAEGFPLPLLKRVQLYDLGLQIHKDFLFLGANVQYMRV | 0.0035 µM | –
